The source of these data is patent US9399192B2, “Carbon dioxide absorber and carbon dioxide separation/recovery method using the absorber” (ASAHI KASEI KABUSHIKI KAISHA, priority 2011, dated 2016).

Like-named read-outs stand apart in the source and are kept apart here.

A short description of data set [1]: Evaluation of reactivity of aqueous amine solutions with carbon dioxide. Format: physicochemical. Particulars: for Absorbed amount at 30° C. (moles CO2/moles N) / Absorbed amount at 90° C. (moles CO2/moles N): aqueous amine 1.81 mol/L (monoamine) or 0.91 mol/L (diamine), CO2 300 mL/min 15 minutes; for CO2 desorption performance (moles CO2/moles N): difference between absorbed amount at 30° C. and at 90° C. Here is the method: Amine compounds were mixed with water to prepare aqueous amine solutions. At this time, the concentration of monoamine compounds having one amino group was adjusted to 1.81 mol/L, while the concentration of diamine compounds having two amino groups was adjusted to 0.91 mol/L. Carbon dioxide gas was blown into 25 mL aliquots of each aqueous amine solution for 15 minutes at 300 mL/min to allow the amine compound to react with the carbon dioxide. The reactions were carried out at temperatures of 30° C. and 90° C., and the reacted amount was calculated from element ratios of C and N before and after the reaction as measured with the Model TOC-VCP and Model TNM-1 Total Organic Carbon Analyzers (Shimadzu Corp.).
The absorbed amounts are represented by the number of moles of carbon dioxide reacting with respect to 1 mole of amino group, or in other words, moles CO2/moles N.
(§1) Table 7 indicates a comparison of performance when used as an amine compound for a carbon dioxide absorber. Those parameters evaluated as indicators of performance consisted of absorbed amount at 30° C., absorbed amount at 90° C. and heat of reaction. Furthermore, the difference between the absorbed amount at 30° C. and the absorbed amount at 90° C. was taken to represent carbon dioxide desorption performance. Values for heat of reaction are shown in Table 7 after converting to heat of reaction (kJ/mol) per 1 mole of reacted carbon dioxide using a calibration curve obtained when the reacted amount of the amino groups of each amine compound and carbon dioxide reached 0.10 mol CO2/mol N.

Data set [2] in a line: Evaluation of heat of reaction of aqueous amine solutions (C-80 reaction calorimeter, FIG. 9C). Format: physicochemical. The note with it: 30° C., per 1 mole of reacted CO2 at reacted amount 0.10 mol CO2/mol N. Here is the method: * Evaluation of Heat of Reaction Heat of reaction was measured using the apparatus shown in FIG. 9C with the Model C-80 Reaction calorimeter (Setaram Inc.) 936. A gas circulation normal pressure type cell (stainless steel 31/1415) was used for the cell, and the gas inlet port and outlet port were connected as shown in FIG. 9C. 4 g aliquots of each aqueous amine compound solution were placed in the cell after adjusting to the same concentrations as those used in the aforementioned evaluation of reactivity ([…] in the case of monoamine compounds and […] in the case of diamine compounds) and the cell was then placed in the C-80 Reaction calorimeter. The cell temperature was adjusted to 30° C. and allowed to stabilize. 50 mL of carbon dioxide were injected into a gas syringe 930 from carbon dioxide supplied from a carbon dioxide cylinder 929 by closing a valve 932 followed by opening the valve 932. The reacted amount was then measured based on the change in internal pressure measured with a pressure gauge 933 while measuring the amount of heat generated with the C-80 Reaction calorimeter. The amount of heat generated and reacted amount were calculated in advance using a calibration curve of heat of compression and internal pressure determined in the absence of a sample.
as §1

Data set [3] in a line: pKb of amine compounds / pKa of weakly acidic compounds calculated from pH of aqueous solution. Particulars: amine compound, aqueous solution at 30° C., calculated from pH of 0.4 M aqueous solution.
The conditions of data set [4]: pH 0.4.
Data set [5] is classed as physicochemical. The text has this: Thus, Compound A is extremely useful since it is able to reduce volatilization loss when contacting a gas. In addition, the weak basicity per amino group is attributable to the diamine structure. […]. Thus, Compound A is extremely useful since it allows a wide range of materials to be selected for use in the reactor.
The nature of data set [6]: physchem. The note with it: aqueous solution.

With `NCC(O)CN` [DAP, 1,3-diaminopropan-2-ol], in data set [1], the “Absorbed amount at 30° C. (moles CO2/moles N)” value was found to be 0.601 moles CO2/moles N, the “Absorbed amount at 90° C. (moles CO2/moles N)” value was 0.409 moles CO2/moles N and the “CO2 desorption performance (moles CO2/moles N)” value is 0.192 moles CO2/moles N. Also, the “Heat of reaction” value in data set [2] amounted to 20.9 kcal/mol.

Turning to `CC(O)CNCC(O)CNCCO` (centres unmarked) [HEHPP, 1-(2-hydroxyethylamino)-3-(2-hydroxypropylamino)propan-2-ol], in data set [1], the “Absorbed amount at 30° C. (moles CO2/moles N)” value is listed as 0.506 moles CO2/moles N, the “Absorbed amount at 90° C. (moles CO2/moles N)” value stood at 0.213 moles CO2/moles N and the “CO2 desorption performance (moles CO2/moles N)” value is listed as 0.293 moles CO2/moles N. Also, the “Heat of reaction” value in data set [2] came to 16.1 kcal/mol.

As to `C1CNCCN1` [Pz, piperazine], the negative logarithm of the Kb (pKb) – broadly, −log10 of the Kb, conventionally taken in molar units – in data set [3] is 4.8.

In the case of `NCCO` [MEA, Monoethanolamine], in data set [1], the “Absorbed amount at 30° C. (moles CO2/moles N)” value worked out at 0.614 moles CO2/moles N, the “Absorbed amount at 90° C. (moles CO2/moles N)” value is given as 0.400 moles CO2/moles N and the “CO2 desorption performance (moles CO2/moles N)” value came to 0.214 moles CO2/moles N. Further, in data set [2], the “Heat of reaction” value was found to be 21.6 kcal/mol. The molecule further had a pKb in data set [4] of 4.7.

For `OCCNCC(O)CNCCO` [BHEP, 1,3-bis(2-hydroxyethylamino)propan-2-ol], in data set [1], the “Absorbed amount at 30° C. (moles CO2/moles N)” value was 0.516 moles CO2/moles N, the “Absorbed amount at 90° C. (moles CO2/moles N)” value is reported as 0.214 moles CO2/moles N and the “CO2 desorption performance (moles CO2/moles N)” value came out at 0.302 moles CO2/moles N. Moreover, the “Heat of reaction” value in data set [2] stood at 16.1 kcal/mol. For the same molecule, the vapor pressure in data set [5] is on record as 0.04 mPa. The molecule also had a pKb in data set [4] of 6.3.

Regarding `OB(O)O` [Boric acid], the pKa (as a rule, the negative logarithm of the acid dissociation constant) in data set [6] is 9.2.

As to `CC(C)NCCO` [IPAE, 2-isopropylaminoethanol], the pKb in data set [3] is recorded as 4.1.

As to `CCOB(OCC)OCC` [TEB, Triethylborate], in data set [6], the pKa stood at 8.1.

As for `OCCNCCO` [DEA, Diethanolamine], in data set [4], the negative-log Kb (pKb) is reported as 5.4.

`COB(OC)OC` [TMB, Trimethylborate] returned a pKa in data set [6] of 8.7.

Regarding `CC(O)CNCC(O)CNCC(C)O` (centres unmarked) [BHPP, 1,3-bis(2-hydroxypropylamino)propan-2-ol], in data set [1], the “Absorbed amount at 30° C. (moles CO2/moles N)” value came to 0.498 moles CO2/moles N, the “Absorbed amount at 90° C. (moles CO2/moles N)” value is 0.213 moles CO2/moles N and the “CO2 desorption performance (moles CO2/moles N)” value is given as 0.285 moles CO2/moles N. For the same molecule, in data set [2], the “Heat of reaction” value was found to be 16.3 kcal/mol.

For the molecule `NC(CO)CO` [Example 2A13PD, 2-amino-1,3-propanediol], the pKb in data set [3] is on record as 5.6.

On to `CCNCCO` [EAE, 2-ethylaminoethanol], for which, in data set [1], the “Absorbed amount at 30° C. (moles CO2/moles N)” value amounted to 0.631 moles CO2/moles N, the “Absorbed amount at 90° C. (moles CO2/moles N)” value amounted to 0.279 moles CO2/moles N and the “CO2 desorption performance (moles CO2/moles N)” value is recorded as 0.352 moles CO2/moles N. Also, the “Heat of reaction” value in data set [2] is 20.8 kcal/mol. For the same molecule, the pKb in data set [3] is reported as 4.4.
